Source: BindingDB's records for doi:10.1016/j.bmcl.2012.06.023 (University of Siena, 2012)

These compounds were tested against Subtilisin-like protease 1 (Plasmodium falciparum, UniProt O61142) (assay: Inhibition of Plasmodium falciparum SUB1 by fluorimetric assay).
Sequence of Subtilisin-like protease 1 (O61142 220-690 limits assumed): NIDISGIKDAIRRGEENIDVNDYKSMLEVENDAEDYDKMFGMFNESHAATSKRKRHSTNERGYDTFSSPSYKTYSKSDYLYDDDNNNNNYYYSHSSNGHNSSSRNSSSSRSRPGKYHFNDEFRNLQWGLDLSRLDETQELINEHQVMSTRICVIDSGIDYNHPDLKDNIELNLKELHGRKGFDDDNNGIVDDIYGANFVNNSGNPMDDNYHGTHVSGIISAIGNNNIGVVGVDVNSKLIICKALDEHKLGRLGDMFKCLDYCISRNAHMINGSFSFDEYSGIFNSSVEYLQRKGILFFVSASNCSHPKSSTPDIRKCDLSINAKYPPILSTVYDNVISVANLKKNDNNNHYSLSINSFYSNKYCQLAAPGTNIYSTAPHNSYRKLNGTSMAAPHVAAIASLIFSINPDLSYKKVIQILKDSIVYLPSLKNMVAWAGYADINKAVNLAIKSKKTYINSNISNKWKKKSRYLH

| Compound | IC50 |
| --- | --- |
| Cc1cc(N=NCc2ccccc2[N+](=O)[O-])c2cc3c(cc2n1)OCO3 | 40 µM |
| Cc1cc(N=NCc2ccc(C#N)cc2)c2cc3c(cc2n1)OCO3 | 40 µM |
| Cc1cc(N=NCc2ccc([N+](=O)[O-])cc2)c2cc3c(cc2n1)OCO3 | 20 µM |
| O=[N+]([O-])c1ccc(CN=Nc2c3c(nc4ccccc24)CCCC3)cc1 | > 50 µM |
| O=[N+]([O-])c1ccc(CN=Nc2nc3ccccc3[nH]2)cc1 | > 50 µM |
| COc1ccc2nc(C)cc(N=NCc3ccc([N+](=O)[O-])cc3)c2c1 [TCMDC-123970] | 20 µM |
